From PubChem BioAssay AID2060609 (Molecular Pharmacology Branch, DTP, NCI, 2025)
Values joined by “and” are separate entries in the source; they are usually repeats but may differ in a detail not shown here. Equal values may be shown once.

System: 855422-203-R-J1-PDC complex spheroids, viability
Assay: Anticancer human tumor 855422-203-R-J1-PDC patient-derived bladder carcinoma cell line growth inhibition [CLK]
Conditions: for viability, T/C: stronger effect = lower value
Outline: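 Patient-derived tumor cells grown as complex spheroids with HUVEC endothelial cells and mesenchymal stem cells, treated with drug combinations. Concentrations descend in half-log steps from near clinical Cmax, or from 10 microM if Cmax unknown.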

[1] = curve of first compound, second compound 0.0316 µM
[2] = curve of first compound, second compound 0.1 µM
[3] = curve of first compound, second compound 0.316 µM
[4] = curve of first compound, second compound 1 µM
[5] = curve of first compound, second compound 3.16 µM
[6] = curve of first compound, second compound 10 µM
[7] = second compound 0.0316 µM, first compound 0.0316 µM
[8] = second compound 0.0316 µM, first compound 0.1 µM
[9] = second compound 0.0316 µM, first compound 0.316 µM
[10] = second compound 0.0316 µM, first compound 1 µM
[11] = second compound 0.1 µM, first compound 0.0316 µM
[12] = second compound 0.1 µM, first compound 0.1 µM
[13] = second compound 0.1 µM, first compound 0.316 µM
[14] = second compound 0.1 µM, first compound 1 µM
[15] = second compound 0.316 µM, first compound 0.0316 µM
[16] = second compound 0.316 µM, first compound 0.1 µM
[17] = second compound 0.316 µM, first compound 0.316 µM
[18] = second compound 0.316 µM, first compound 1 µM
[19] = second compound 1 µM, first compound 0.0316 µM
[20] = second compound 1 µM, first compound 0.1 µM
[21] = second compound 1 µM, first compound 0.316 µM
[22] = second compound 1 µM, first compound 1 µM
[23] = second compound 3.16 µM, first compound 0.0316 µM
[24] = second compound 3.16 µM, first compound 0.1 µM
[25] = second compound 3.16 µM, first compound 0.316 µM
[26] = second compound 3.16 µM, first compound 1 µM
[27] = second compound 10 µM, first compound 0.0316 µM
[28] = second compound 10 µM, first compound 0.1 µM
[29] = second compound 10 µM, first compound 0.316 µM
[30] = second compound 10 µM, first compound 1 µM
[31] = second compound 0.0316 µM, first compound 0.00316 µM
[32] = second compound 0.0316 µM, first compound 0.01 µM
[33] = second compound 0.1 µM, first compound 0.00316 µM
[34] = second compound 0.1 µM, first compound 0.01 µM
[35] = second compound 0.316 µM, first compound 0.00316 µM
[36] = second compound 0.316 µM, first compound 0.01 µM
[37] = second compound 1 µM, first compound 0.00316 µM
[38] = second compound 1 µM, first compound 0.01 µM
[39] = second compound 3.16 µM, first compound 0.00316 µM
[40] = second compound 3.16 µM, first compound 0.01 µM
[41] = second compound 10 µM, first compound 0.00316 µM
[42] = second compound 10 µM, first compound 0.01 µM
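Also: spheroids exposed to drugs for seven days before readout.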
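For viability, T/C in this document: 100% = DMSO vehicle control wells.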

C#Cc1c(F)ccc2cc(O)cc(-c3ncc4c(N5CC6CCC(C5)N6)nc(OCC56CCCN5CC(F)C6)nc4c3F)c12 (stereo not given) + CN1CCN(c2cc(C(=O)Nc3cc4cc(-c5cnn(C)c5)ccc4cn3)ccn2)CC1
IC50 [1]: > 10000 nM | IC50 [2]: > 10000 nM | IC50 [3]: < 31.6 nM | IC50 [4]: < 31.6 nM | IC50 [5]: < 31.6 nM | IC50 [6]: < 31.6 nM | viability, T/C [7]: 106% | viability, T/C [8]: 98.8% | viability, T/C [9]: 119% | viability, T/C [10]: 98.8% | viability, T/C (second compound 0.0316 µM, first compound 3.16 µM): 104% | viability, T/C (second compound 0.0316 µM, first compound 10 µM): 113% | viability, T/C [11]: 84.4% | viability, T/C [12]: 84.4% | viability, T/C [13]: 85.1% | viability, T/C [14]: 89.2% | viability, T/C (second compound 0.1 µM, first compound 3.16 µM): 93.3% | viability, T/C (second compound 0.1 µM, first compound 10 µM): 81.9% | viability, T/C [15]: 13% | viability, T/C [16]: 12.4% | viability, T/C [17]: 14.8% | viability, T/C [18]: 15.1% | viability, T/C (second compound 0.316 µM, first compound 3.16 µM): 14.9% | viability, T/C (second compound 0.316 µM, first compound 10 µM): 8.68% | viability, T/C [19]: 0.86% | viability, T/C [20]: 0.58% | viability, T/C [21]: 0.22% | viability, T/C [22]: 0.24% | viability, T/C (second compound 1 µM, first compound 3.16 µM): 0.22% | viability, T/C (second compound 1 µM, first compound 10 µM): 0.17% | viability, T/C [23]: 0.39% | viability, T/C [24]: 0.72% | viability, T/C [25]: 0.49% | viability, T/C [26]: 0.38% | viability, T/C (second compound 3.16 µM, first compound 3.16 µM): 1.64% | viability, T/C (second compound 3.16 µM, first compound 10 µM): 0.18% | viability, T/C [27]: 0.42% | viability, T/C [28]: 0.85% | viability, T/C [29]: 0.3% | viability, T/C [30]: 0.35% | viability, T/C (second compound 10 µM, first compound 3.16 µM): 0.3% | viability, T/C (second compound 10 µM, first compound 10 µM): 0.2%

CNC(=O)c1ccc(Nc2nc(OC3CCCC3)c3c(-c4ccc5nc(C)oc5c4)c[nH]c3n2)c(OC)c1
viability, T/C (compound 0.316 µM): 23.8% [middle of 12 runs] | viability, T/C (compound 1 µM): 22.5% [middle of 12 runs] | viability, T/C (compound 3.16 µM): 21.2% [middle of 12 runs] | viability, T/C (compound 10 µM): 20.1% [middle of 11 runs] | IC50 (compound alone, run of 08/01/2023): 142 nM [middle of 11 runs]

CCc1c2c(nc3ccc(O)cc13)-c1cc3c(c(=O)n1C2)COC(=O)[C@]3(O)CC + CN1CCN(c2cc(C(=O)Nc3cc4cc(-c5cnn(C)c5)ccc4cn3)ccn2)CC1
IC50 [1]: 4.23 nM | IC50 [2]: < 3.16 nM | IC50 [3]: < 3.16 nM | IC50 [4]: < 3.16 nM | IC50 [5]: < 3.16 nM | IC50 [6]: < 3.16 nM | viability, T/C [31]: 61.9% | viability, T/C [32]: 14.1% | viability, T/C [7]: 11.2% | viability, T/C [8]: 5.5% | viability, T/C [9]: 3.03% | viability, T/C [10]: 2.59% | viability, T/C [33]: 24.7% | viability, T/C [34]: 12.1% | viability, T/C [11]: 7.5% | viability, T/C [12]: 4.65% | viability, T/C [13]: 3.59% | viability, T/C [14]: 1.4% | viability, T/C [35]: 5.85% | viability, T/C [36]: 5.41% | viability, T/C [15]: 5.45% | viability, T/C [16]: 1.97% | viability, T/C [17]: 0.54% | viability, T/C [18]: 0.17% | viability, T/C [37]: 1.09% | viability, T/C [38]: 0.16% | viability, T/C [19]: 0.3% | viability, T/C [20]: 0.23% | viability, T/C [21]: 0.15% | viability, T/C [22]: 0.33% | viability, T/C [39]: 0.33% | viability, T/C [40]: 0.52% | viability, T/C [23]: 0.44% | viability, T/C [24]: 0.3% | viability, T/C [25]: 0.46% | viability, T/C [26]: 0.23% | viability, T/C [41]: 0.38% | viability, T/C [42]: 0.17% | viability, T/C [27]: 0.26% | viability, T/C [28]: 2.2% | viability, T/C [29]: 2.67% | viability, T/C [30]: 0.19%

CC(CO)NC(=O)c1cc(-c2ccc(Cl)cc2)nn(-c2cnn(C)c2)c1=O (stereo not given)
viability, T/C (compound 0.0316 µM): 92.5% and 94.5% | viability, T/C (compound 0.1 µM): 89.1% and 85.5% | viability, T/C (compound 0.316 µM): 94.6% and 92.7% | viability, T/C (compound 1 µM): 93.5% and 99.6% | viability, T/C (compound 3.16 µM): 110% and 99.5% | viability, T/C (compound 10 µM): 82.2% and 94% | IC50 (curve of compound): > 10000 nM

CCc1c2c(nc3ccc(O)cc13)-c1cc3c(c(=O)n1C2)COC(=O)[C@]3(O)CC + CNC(=O)c1ccc(Nc2nc(OC3CCCC3)c3c(-c4ccc5nc(C)oc5c4)c[nH]c3n2)c(OC)c1
IC50 [1]: 3.92 nM | IC50 [2]: < 3.16 nM | IC50 [3]: < 3.16 nM | IC50 [4]: < 3.16 nM | IC50 [5]: < 3.16 nM | IC50 [6]: < 3.16 nM | viability, T/C [31]: 58.1% | viability, T/C [32]: 14.6% | viability, T/C [7]: 10.3% | viability, T/C [8]: 4.46% | viability, T/C [9]: 2.37% | viability, T/C [10]: 2.42% | viability, T/C [33]: 31.4% | viability, T/C [34]: 13.2% | viability, T/C [11]: 8.17% | viability, T/C [12]: 3.32% | viability, T/C [13]: 2.65% | viability, T/C [14]: 1.46% | viability, T/C [35]: 18.2% | viability, T/C [36]: 11.9% | viability, T/C [15]: 6.3% | viability, T/C [16]: 3.66% | viability, T/C [17]: 2.03% | viability, T/C [18]: 3.09% | viability, T/C [37]: 17.7% | viability, T/C [38]: 10.2% | viability, T/C [19]: 7.3% | viability, T/C [20]: 4.22% | viability, T/C [21]: 2.1% | viability, T/C [22]: 1.8% | viability, T/C [39]: 17.8% | viability, T/C [40]: 12.4% | viability, T/C [23]: 7.84% | viability, T/C [24]: 3.73% | viability, T/C [25]: 2.41% | viability, T/C [26]: 1.27% | viability, T/C [41]: 13.8% | viability, T/C [42]: 11.1% | viability, T/C [27]: 7.08% | viability, T/C [28]: 5.03% | viability, T/C [29]: 3.52% | viability, T/C [30]: 1.51%

CC(=O)O[C@H]1C(=O)[C@@]2(C)[C@H]([C@H](OC(=O)c3ccccc3)[C@]3(O)C[C@H](OC(=O)[C@H](O)[C@@H](NC(=O)c4ccccc4)c4ccccc4)C(C)=C1C3(C)C)[C@]1(OC(C)=O)CO[C@@H]1C[C@@H]2O
viability, T/C (compound 0.0316 µM): 7.73% and 9% | viability, T/C (compound 0.1 µM): 9.43% and 8.68% | viability, T/C (compound 0.316 µM): 9.33% and 9.1% | viability, T/C (compound 1 µM): 8.48% and 7.37% | viability, T/C (compound 3.16 µM): 8.93% and 7.1% | viability, T/C (compound 10 µM): 9.93% and 9.02% | IC50 (curve of compound): < 31.6 nM
